Reference: ChEMBL document CHEMBL1150976, “The selectivity of protein kinase inhibitors: a further update” (Biochem J, 2007)

Legend:
[1] = target: Proto-oncogene tyrosine-protein kinase LCK (Mus musculus, UniProt P06240); test: Inhibition of Lck in the presence of 50uM ATP
[2] = target: Homeodomain-interacting protein kinase 3 (Homo sapiens) (UniProt Q9H422); test: Percentage HIPK3 activity remaining in the presence of 3uM inhibitor
[3] = target: Serine/threonine-protein kinase Nek6 (Homo sapiens) (UniProt Q9HC98); test: Percentage NEK6 activity remaining in the presence of 3uM inhibitor
Sequence of Serine/threonine-protein kinase Nek6 (Homo sapiens) (Q9HC98 whole entry): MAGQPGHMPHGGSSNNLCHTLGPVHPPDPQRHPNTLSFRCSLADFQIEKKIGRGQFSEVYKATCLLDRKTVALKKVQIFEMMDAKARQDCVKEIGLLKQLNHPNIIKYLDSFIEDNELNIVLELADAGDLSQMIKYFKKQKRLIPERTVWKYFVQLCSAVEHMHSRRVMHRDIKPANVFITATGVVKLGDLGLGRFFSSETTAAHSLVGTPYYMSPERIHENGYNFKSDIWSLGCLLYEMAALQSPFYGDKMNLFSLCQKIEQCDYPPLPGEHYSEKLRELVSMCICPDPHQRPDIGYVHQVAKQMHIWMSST

[4] = target: T1, Serine/threonine-protein kinase D1 (Homo sapiens) (UniProt Q15139); test: Percentage PKD1 activity remaining in the presence of 3uM inhibitor
T1 sequence (whole entry): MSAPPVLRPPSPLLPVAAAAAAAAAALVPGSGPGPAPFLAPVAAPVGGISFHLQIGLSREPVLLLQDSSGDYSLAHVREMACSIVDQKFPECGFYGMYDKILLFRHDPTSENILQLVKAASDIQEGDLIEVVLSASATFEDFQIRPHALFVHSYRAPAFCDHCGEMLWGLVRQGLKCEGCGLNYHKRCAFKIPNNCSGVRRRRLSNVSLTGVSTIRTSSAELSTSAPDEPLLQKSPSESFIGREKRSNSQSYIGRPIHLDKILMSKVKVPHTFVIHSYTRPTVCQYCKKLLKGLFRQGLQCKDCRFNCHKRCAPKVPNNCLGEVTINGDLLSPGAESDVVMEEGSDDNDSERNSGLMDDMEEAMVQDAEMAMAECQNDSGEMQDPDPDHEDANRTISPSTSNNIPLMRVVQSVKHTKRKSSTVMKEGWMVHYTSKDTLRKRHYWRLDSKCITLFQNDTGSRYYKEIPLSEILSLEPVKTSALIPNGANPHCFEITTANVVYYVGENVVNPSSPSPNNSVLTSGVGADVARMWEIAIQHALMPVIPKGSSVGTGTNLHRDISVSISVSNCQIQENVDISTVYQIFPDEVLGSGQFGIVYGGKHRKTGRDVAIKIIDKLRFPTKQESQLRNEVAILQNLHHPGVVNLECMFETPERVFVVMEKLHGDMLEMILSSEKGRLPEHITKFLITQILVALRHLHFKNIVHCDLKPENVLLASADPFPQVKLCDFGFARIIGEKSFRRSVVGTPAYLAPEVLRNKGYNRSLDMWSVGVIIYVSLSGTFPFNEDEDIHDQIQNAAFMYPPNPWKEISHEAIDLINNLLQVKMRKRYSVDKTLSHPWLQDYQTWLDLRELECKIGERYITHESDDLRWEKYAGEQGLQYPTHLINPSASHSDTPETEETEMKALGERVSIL

[5] = target: Dual specificity tyrosine-phosphorylation-regulated kinase 1A (Homo sapiens) (UniProt Q13627); test: Percentage DYRK1A activity remaining in the presence of 3uM inhibitor
[6] = target: Casein kinase I isoform delta (Homo sapiens, UniProt P48730); test: Percentage CK1delta activity remaining in the presence of 3uM inhibitor
Sequence of Casein kinase I isoform delta (P48730 whole entry, looked up, canonical isoform): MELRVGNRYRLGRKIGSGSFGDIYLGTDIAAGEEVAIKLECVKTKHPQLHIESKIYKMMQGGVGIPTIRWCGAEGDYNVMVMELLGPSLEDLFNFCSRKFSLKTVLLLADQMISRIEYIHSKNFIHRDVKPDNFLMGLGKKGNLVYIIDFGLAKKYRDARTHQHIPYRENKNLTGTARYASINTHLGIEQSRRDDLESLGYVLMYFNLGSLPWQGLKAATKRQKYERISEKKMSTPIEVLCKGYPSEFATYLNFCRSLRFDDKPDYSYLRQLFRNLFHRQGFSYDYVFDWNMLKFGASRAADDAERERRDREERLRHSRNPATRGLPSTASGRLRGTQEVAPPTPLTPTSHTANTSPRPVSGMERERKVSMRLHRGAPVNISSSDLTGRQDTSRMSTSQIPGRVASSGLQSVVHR

[7] = target: SRSF protein kinase 1 (Homo sapiens) (UniProt Q96SB4); test: Percentage SRPK1 activity remaining in the presence of 3uM inhibitor
Sequence of SRSF protein kinase 1 (Homo sapiens) (Q96SB4 whole entry): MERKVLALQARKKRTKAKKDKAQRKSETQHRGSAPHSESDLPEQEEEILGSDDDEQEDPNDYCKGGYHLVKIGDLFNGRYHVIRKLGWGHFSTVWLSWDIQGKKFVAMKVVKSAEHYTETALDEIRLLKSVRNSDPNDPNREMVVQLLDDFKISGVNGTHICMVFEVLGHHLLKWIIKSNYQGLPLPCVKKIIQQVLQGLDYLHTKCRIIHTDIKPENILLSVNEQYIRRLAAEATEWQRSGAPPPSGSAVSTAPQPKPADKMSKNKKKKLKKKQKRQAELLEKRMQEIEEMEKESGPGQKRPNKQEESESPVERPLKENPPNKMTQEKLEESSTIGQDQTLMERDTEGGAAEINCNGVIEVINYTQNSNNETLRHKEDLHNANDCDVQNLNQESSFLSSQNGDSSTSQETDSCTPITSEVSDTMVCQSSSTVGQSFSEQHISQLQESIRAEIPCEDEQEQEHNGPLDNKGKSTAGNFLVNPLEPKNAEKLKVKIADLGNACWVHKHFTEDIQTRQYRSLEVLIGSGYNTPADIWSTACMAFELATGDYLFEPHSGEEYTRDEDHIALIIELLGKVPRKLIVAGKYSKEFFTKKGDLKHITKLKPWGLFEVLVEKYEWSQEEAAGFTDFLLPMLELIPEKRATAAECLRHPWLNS

[8] = target: MAP kinase-activated protein kinase 3 (Homo sapiens) (UniProt Q16644); test: Percentage MAPKAPK3 activity remaining in the presence of 3uM inhibitor
Sequence of MAP kinase-activated protein kinase 3 (Homo sapiens) (Q16644 whole entry, looked up): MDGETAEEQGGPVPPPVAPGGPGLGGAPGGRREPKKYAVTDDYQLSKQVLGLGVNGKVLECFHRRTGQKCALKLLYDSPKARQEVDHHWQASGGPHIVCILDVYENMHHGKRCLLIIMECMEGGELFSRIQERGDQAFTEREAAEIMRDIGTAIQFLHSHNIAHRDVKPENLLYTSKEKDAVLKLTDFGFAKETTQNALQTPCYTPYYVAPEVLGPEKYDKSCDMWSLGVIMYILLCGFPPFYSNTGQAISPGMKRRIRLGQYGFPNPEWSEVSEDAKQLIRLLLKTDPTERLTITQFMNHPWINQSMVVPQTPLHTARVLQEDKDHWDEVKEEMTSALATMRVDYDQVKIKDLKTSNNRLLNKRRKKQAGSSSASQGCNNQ

[9] = target: T2, Serine/threonine-protein kinase Sgk1 (Homo sapiens) (UniProt O00141); test: Percentage SGK1 activity remaining in the presence of 2uM inhibitor
T2 sequence (whole entry): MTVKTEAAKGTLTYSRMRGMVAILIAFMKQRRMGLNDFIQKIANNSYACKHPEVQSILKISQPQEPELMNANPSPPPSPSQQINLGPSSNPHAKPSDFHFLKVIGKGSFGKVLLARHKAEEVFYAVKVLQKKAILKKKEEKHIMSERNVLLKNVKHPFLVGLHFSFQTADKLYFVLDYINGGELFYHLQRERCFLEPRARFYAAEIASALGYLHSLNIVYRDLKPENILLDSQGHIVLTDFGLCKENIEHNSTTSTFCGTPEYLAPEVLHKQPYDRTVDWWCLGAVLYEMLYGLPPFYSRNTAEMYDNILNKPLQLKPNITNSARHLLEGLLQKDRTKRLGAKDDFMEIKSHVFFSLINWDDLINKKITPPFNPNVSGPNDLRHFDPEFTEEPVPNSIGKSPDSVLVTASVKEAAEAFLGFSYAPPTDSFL

[10] = target: Protein kinase C alpha type (Homo sapiens) (UniProt P17252); test: Percentage PKCalpha activity remaining in the presence of 2uM inhibitor
[11] = target: Serine/threonine-protein kinase PLK1 (Homo sapiens, UniProt P53350); test: Percentage PLK1 activity remaining in the presence of 2uM inhibitor
Sequence of Serine/threonine-protein kinase PLK1 (P53350 whole entry): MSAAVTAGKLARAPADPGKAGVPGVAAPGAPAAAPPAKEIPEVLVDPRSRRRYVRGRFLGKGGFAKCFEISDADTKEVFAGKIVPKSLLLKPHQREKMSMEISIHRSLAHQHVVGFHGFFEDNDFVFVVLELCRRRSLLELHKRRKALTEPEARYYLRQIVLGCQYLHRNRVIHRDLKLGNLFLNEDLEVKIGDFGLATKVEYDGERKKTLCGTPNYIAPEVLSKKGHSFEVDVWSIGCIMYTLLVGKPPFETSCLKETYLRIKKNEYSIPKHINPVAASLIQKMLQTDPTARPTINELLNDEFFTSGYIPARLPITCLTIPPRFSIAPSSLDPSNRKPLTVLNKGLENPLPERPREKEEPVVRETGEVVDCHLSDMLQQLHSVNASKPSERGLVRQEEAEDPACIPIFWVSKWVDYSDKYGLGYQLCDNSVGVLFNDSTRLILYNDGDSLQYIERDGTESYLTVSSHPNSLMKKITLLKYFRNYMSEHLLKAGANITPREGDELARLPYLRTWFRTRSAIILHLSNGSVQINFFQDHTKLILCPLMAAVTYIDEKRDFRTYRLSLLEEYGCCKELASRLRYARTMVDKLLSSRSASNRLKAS

[12] = target: Mitogen-activated protein kinase 3 (Homo sapiens) (UniProt P27361); test: Percentage ERK1 activity remaining in the presence of 2uM inhibitor
Sequence of Mitogen-activated protein kinase 3 (Homo sapiens) (P27361 whole entry): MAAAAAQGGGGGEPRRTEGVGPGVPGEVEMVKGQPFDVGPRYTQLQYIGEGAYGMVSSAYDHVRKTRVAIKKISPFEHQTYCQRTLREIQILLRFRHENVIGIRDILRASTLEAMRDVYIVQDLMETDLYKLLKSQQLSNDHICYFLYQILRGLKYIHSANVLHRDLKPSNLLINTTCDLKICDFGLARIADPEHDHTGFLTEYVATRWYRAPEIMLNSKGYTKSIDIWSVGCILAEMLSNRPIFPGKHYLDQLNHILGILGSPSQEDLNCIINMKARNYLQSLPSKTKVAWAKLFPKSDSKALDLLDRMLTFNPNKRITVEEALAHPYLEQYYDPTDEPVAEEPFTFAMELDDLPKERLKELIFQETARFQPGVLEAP

[13] = target: Serine/threonine-protein kinase pim-2 (Homo sapiens, UniProt Q9P1W9); test: Percentage PIM2 activity remaining in the presence of 2uM inhibitor
Sequence of Serine/threonine-protein kinase pim-2 (Q9P1W9 whole entry, looked up): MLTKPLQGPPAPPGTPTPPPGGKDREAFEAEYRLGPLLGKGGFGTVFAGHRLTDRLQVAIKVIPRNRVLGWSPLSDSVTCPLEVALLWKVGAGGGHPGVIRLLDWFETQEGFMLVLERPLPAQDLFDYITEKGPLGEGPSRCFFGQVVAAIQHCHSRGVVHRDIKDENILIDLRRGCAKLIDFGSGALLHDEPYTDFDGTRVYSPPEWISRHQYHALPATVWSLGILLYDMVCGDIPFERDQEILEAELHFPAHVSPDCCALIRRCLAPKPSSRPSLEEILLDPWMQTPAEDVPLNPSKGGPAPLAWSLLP

[14] = target: T3, Protein kinase C zeta type (Homo sapiens) (UniProt Q05513); test: Percentage PKCzeta activity remaining in the presence of 2uM inhibitor
T3 sequence (whole entry): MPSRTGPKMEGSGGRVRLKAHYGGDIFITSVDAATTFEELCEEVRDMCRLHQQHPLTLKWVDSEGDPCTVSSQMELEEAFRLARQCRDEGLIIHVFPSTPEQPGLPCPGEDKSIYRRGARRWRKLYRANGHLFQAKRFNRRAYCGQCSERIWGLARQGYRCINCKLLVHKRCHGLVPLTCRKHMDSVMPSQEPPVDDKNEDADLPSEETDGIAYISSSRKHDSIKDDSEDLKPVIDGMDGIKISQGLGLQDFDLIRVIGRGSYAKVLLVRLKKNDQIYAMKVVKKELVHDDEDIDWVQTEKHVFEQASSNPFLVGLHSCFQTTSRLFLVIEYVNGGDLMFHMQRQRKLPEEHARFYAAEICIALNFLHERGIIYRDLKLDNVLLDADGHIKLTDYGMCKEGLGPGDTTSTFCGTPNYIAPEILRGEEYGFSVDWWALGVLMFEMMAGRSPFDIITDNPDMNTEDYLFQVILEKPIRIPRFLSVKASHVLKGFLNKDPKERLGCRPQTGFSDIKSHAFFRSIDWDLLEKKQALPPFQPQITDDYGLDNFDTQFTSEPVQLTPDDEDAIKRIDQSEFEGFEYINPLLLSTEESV

[15] = target: Serine/threonine-protein kinase Chk2 (Homo sapiens) (UniProt O96017); test: Percentage CHK2 activity remaining in the presence of 2uM inhibitor
Sequence of Serine/threonine-protein kinase Chk2 (Homo sapiens) (O96017 whole entry): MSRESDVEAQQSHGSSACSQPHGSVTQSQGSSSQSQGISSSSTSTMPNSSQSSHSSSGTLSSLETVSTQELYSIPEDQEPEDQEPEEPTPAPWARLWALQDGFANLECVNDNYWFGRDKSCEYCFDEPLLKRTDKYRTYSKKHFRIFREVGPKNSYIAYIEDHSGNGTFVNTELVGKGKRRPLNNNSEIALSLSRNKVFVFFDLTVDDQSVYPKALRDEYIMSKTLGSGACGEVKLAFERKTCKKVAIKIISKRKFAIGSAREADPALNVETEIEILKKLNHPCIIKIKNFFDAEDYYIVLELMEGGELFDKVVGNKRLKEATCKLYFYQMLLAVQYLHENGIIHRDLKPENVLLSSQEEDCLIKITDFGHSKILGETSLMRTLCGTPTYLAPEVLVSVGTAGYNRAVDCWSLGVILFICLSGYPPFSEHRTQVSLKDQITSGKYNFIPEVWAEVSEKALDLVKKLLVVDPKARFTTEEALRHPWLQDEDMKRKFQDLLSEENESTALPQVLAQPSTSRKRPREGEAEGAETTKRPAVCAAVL

Sequence of Proto-oncogene tyrosine-protein kinase LCK (P06240 whole entry): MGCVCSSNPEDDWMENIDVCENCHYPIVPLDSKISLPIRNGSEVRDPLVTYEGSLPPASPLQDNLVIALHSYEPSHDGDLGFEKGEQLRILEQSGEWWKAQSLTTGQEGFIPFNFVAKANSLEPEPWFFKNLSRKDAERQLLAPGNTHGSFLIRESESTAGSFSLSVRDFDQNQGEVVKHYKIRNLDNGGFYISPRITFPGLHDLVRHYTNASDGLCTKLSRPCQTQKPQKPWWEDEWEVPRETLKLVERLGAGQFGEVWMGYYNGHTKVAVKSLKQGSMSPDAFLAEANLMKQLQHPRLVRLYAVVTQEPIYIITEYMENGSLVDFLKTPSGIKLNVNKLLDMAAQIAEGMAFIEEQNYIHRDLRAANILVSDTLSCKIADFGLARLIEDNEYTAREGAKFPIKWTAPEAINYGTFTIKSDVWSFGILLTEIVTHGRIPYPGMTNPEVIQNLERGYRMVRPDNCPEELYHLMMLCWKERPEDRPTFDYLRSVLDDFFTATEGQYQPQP

IC50 [1]	Activity [2]	Activity [3]	Activity [4]	Activity [5]	Activity [6]	Activity [7]	Activity [8]	Activity [9]	Activity [10]	Activity [11]	Activity [12]	Activity [13]	Activity [14]	Activity [15]	Compound
750 nM (antagonist)	79%	90%	83%	86%	63%	85%	92%								Cc1ccc(-c2c(C(=O)CF)n(CCCO)c3ncnc(N)c23)cc1
								100%	73%	62%	99%	81%	81%	93%	Cn1cc(C2=C(c3ccc(Cl)cc3Cl)C(=O)NC2=O)c2ccccc21
